Here are results for 115 substances from patent publication US7781565B2 (priority 2006, dated 2010).

“Also recorded” adds a separate entry of the source.

This experiment deals with NCI-60 cell lines. Format: cell-based, human.

RVGRGVL: the “Cell Line (NCI-60 cell line the peptide is associated with)” value is “SF-268 CNS”. For the substance AFGGGSM, the “Cell Line the peptide is associated with (peptide recovered from phage library selection on this NCI-60 cell line)” value is on record as “SN12C Renal”. On to AATRAGS, for which the “Cell Line (NCI-60 cell line the peptide and its motif are associated with)” value is recorded as “UACC 257 Melanoma”. For the substance LAIRGLG, the “Cell Line (NCI-60 cell line the peptide is associated with)” value is “SW620-Colon”. Regarding AGRPDGV, the “Cell Line (NCI-60 cell line the peptide and its motif are associated with)” value is “DU-145 Prostate”. On to GVSTGFT, for which the “Cell Line with which the peptide (and its tripeptide motif) is associated” value (“Cell Line with which the peptide” below) is listed as “K-562-Leukemia”. On the same count and under the same terms, the entry for LRGGLVS is “EKVX-Lung”. With RDGRGAG, the “Cell Line (NCI-60 cell line the peptide is associated with)” value is “SF-295 CNS”. Turning to HKLARGR, the “Cell Line with which the peptide” value is reported as “EKVX-Lung”.

In the case of AGDRGVA, the “Cell Line (NCI-60 cell line the peptide and its motif are associated with)” value is reported as “DU-145 Prostate”. In the case of PYYNGVR, the “Cell Line (NCI-60 cell line the peptide and its motif are associated with)” value is “IGROV1 Ovarian”.

Regarding FAGGSTD, the “Cell Line with which the peptide” value is given as “HL-60-Leukemia”. Consider VRGGLTG, for which the “Cell Line (NCI-60 cell line the peptide is associated with)” value was “HT-29 Colon”. Take GRLWGFW: the “Cell Line with which the peptide” value was “H226-Lung”.

Regarding TREGGLD, the “Cell Line (NCI-60 cell line the peptide is associated with)” value is reported as “KM-12C Colon”. Consider RRLSSIA, for which the “Cell Line the peptide is associated with (peptide recovered from phage library selection on this NCI-60 cell line)” value was “TK-10 Renal”. On to FRASLQY, for which the “Cell Line with which the peptide” value is reported as “Hop-62-Lung”.

For LERAVRT, the “Cell Line (NCI-60 cell line the peptide is associated with)” value is “HT-29 Colon”. Same read-out and setting: the entry for TVGSGCL is “HCT-116 Colon”. Consider NAGRGAS, for which the “Cell Line the peptide is associated with (peptide recovered from phage library selection on this NCI-60 cell line)” value is reported as “TK-10 Renal”. Consider VAWRGVS, for which the “Cell Line with which the peptide” value is “A549-Lung”. Consider GSVLGDY, for which the “Cell Line (NCI-60 cell line the peptide is associated with)” value is on record as “COLO-205-Colon”.

As to AASLRGT, the “Cell Line (NCI-60 cell line the peptide and its motif are associated with)” value was “UACC62 Melanoma”.

Regarding RGSVGPS, the “Cell Line (NCI-60 cell line the peptide is associated with)” value was “SW620-Colon”. On to GSVLHVS, for which the “Cell Line the peptide is associated with (peptide recovered from phage library selection on this NCI-60 cell line)” value was “HS 578 T Breast”. Same read-out and setting: the entry for TGLLRLY is “RXF393 Renal”.

Regarding VYYRLSA, the “Cell Line with which the peptide” value is “SR Leukemia”.

With RSSIAPS, the “Cell Line with which the peptide” value is listed as “Molt-4-Leukemia”. For SGRVFRF, the “Cell Line the peptide is associated with (peptide recovered from phage library selection on this NCI-60 cell line)” value was “HS 578 T Breast”. For VLRSIPS, the “Cell Line (NCI-60 cell line the peptide is associated with)” value is “SF-295 CNS”. Take GSVLPVL: the “Cell Line (NCI-60 cell line the peptide and its motif are associated with)” value is “SK-OV-3-3 Ovarian”. As for EVLWGGR, the “Cell Line (NCI-60 cell line the peptide is associated with)” value is given as “SF-268 CNS”. FAASGVL: the “Cell Line (NCI-60 cell line the peptide and its motif are associated with)” value is “UACC 257 Melanoma”. Regarding TVGSSLG, the “Cell Line the peptide is associated with (peptide recovered from phage library selection on this NCI-60 cell line)” value is “T-47D Breast”. As for ALAGGGL, the “Cell Line (NCI-60 cell line the peptide is associated with)” value is “SNB-75 CNS”. For the substance LRLSGHD, the “Cell Line the peptide is associated with (peptide recovered from phage library selection on this NCI-60 cell line)” value is reported as “NCI/ADR-RES Breast”. LDRSGGL: the “Cell Line (NCI-60 cell line the peptide is associated with)” value was “HCT-116 Colon”.

On to RGSRTGP, for which the “Cell Line (NCI-60 cell line the peptide is associated with)” value is listed as “U251 CNS”. As for GGRSQEG, the “Cell Line the peptide is associated with (peptide recovered from phage library selection on this NCI-60 cell line)” value is “UO31 Renal”.

For the substance GRLYYYR, the “Cell Line with which the peptide” value is given as “RPMI-8226-Leukemia”. Consider TFAGRSL, for which the “Cell Line (NCI-60 cell line the peptide and its motif are associated with)” value is reported as “A498 Renal”.

In the case of HAELVSL, the “Cell Line (NCI-60 cell line the peptide is associated with)” value is recorded as “KM-12C Colon”. SSGSSNG: the “Cell Line with which the peptide” value is listed as “K-562-Leukemia”.

Take EGARASD: the “Cell Line with which the peptide” value is reported as “Hop-92-Lung”. For the substance AIMGAGL, the “Cell Line (NCI-60 cell line the peptide and its motif are associated with)” value is “OVCAR-8 Ovarian”. Turning to IAMAGLR, the “Cell Line (NCI-60 cell line the peptide and its motif are associated with)” value is “SK-MEL-2 Melanoma”.

For the substance LLRPAHG, the “Cell Line (NCI-60 cell line the peptide and its motif are associated with)” value is listed as “SK-MEL-2 Melanoma”. In the case of SGHGVSA, the “Cell Line with which the peptide” value is “H23-Lung”. Same read-out and setting: the entry for KSGLRPA is “EKVX-Lung”. On the same count and under the same terms, in the case of KRESGLG it was “Hop-62-Lung”. As to DRQLAGR, the “Cell Line the peptide is associated with (peptide recovered from phage library selection on this NCI-60 cell line)” value was “HS 578 T Breast”. For SVGAVGG, the “Cell Line with which the peptide” value is given as “A549-Lung”.

Take DTPSAVS: the “Cell Line (NCI-60 cell line the peptide is associated with)” value was “SF-268 CNS”. On to AVEGRGS, for which the “Cell Line (NCI-60 cell line the peptide is associated with)” value is listed as “HCT-116 Colon”. As for TRRGRLD, the “Cell Line the peptide is associated with (peptide recovered from phage library selection on this NCI-60 cell line)” value is reported as “SN12C Renal”. Same read-out and setting: in the case of AECCGGL it was “ACHN Renal”. In the case of GFYWLRS, the “Cell Line with which the peptide” value is given as “Molt-4-Leukemia”. VALGVSS: the “Cell Line the peptide is associated with (peptide recovered from phage library selection on this NCI-60 cell line)” value was “T-47D Breast”. Take GDSRRGV: the “Cell Line with which the peptide” value is listed as “Hop-62-Lung”. Same read-out and setting: the entry for VEYAAGR is “CCRF-CEM Leukemia”. GEALGLG: the “Cell Line (NCI-60 cell line the peptide and its motif are associated with)” value was “SK-MEL-2 Melanoma”.

VLRAASR: the “Cell Line (NCI-60 cell line the peptide is associated with)” value is “HT-29 Colon”.

Consider DAGRTID, for which the “Cell Line with which the peptide” value is “Hop-62-Lung”. Take RASCVWR: the “Cell Line (NCI-60 cell line the peptide and its motif are associated with)” value is “DU-145 Prostate”. Still for that read-out and setting: the entry for LVPLVSG is “SK-OV-3-3 Ovarian”. Regarding WVGSGSP, the “Cell Line with which the peptide” value was “Hop-92-Lung”. Take GRSSGME: the “Cell Line (NCI-60 cell line the peptide is associated with)” value is “HT-29 Colon”.

In the case of RRARGAC, the “Cell Line (NCI-60 cell line the peptide is associated with)” value is listed as “SNB-75 CNS”. On to STSLGAG, for which the “Cell Line with which the peptide” value was “H322-Lung”.

PLAVSMV: the “Cell Line with which the peptide” value is “SR Leukemia”. On the same count and under the same terms, in the case of LVSSSEP it was “HL-60-Leukemia”. Consider RPARGAF, for which the “Cell Line the peptide is associated with (peptide recovered from phage library selection on this NCI-60 cell line)” value is reported as “ACHN Renal”. With GGALLRG, the “Cell Line with which the peptide” value is reported as “Hop-92-Lung”.

Turning to HADVLVS, the “Cell Line (NCI-60 cell line the peptide and its motif are associated with)” value is given as “DU-145 Prostate”. As for QLPGLLR, the “Cell Line (NCI-60 cell line the peptide is associated with)” value is recorded as “SNB-75 CNS”.

Consider RRGSVAE, for which the “Cell Line the peptide is associated with (peptide recovered from phage library selection on this NCI-60 cell line)” value was “HS 578 T Breast”. In the case of ARGGESA, the “Cell Line (NCI-60 cell line the peptide and its motif are associated with)” value is “SK-OV-3-3 Ovarian”. With LLLLSGS, the “Cell Line the peptide is associated with (peptide recovered from phage library selection on this NCI-60 cell line)” value is “RXF393 Renal”. As for PQGRGVK, the “Cell Line (NCI-60 cell line the peptide is associated with)” value was “SNB-75 CNS”.

For FSSKRGV, the “Cell Line with which the peptide” value was “RPMI-8226-Leukemia”.

Consider RQDGGLY, for which the “Cell Line (NCI-60 cell line the peptide and its motif are associated with)” value was “PC3 Prostate”. AVSLVVL: the “Cell Line (NCI-60 cell line the peptide and its motif are associated with)” value is “OVCAR-8 Ovarian”.

For the substance WAHAASY, the “Cell Line the peptide is associated with (peptide recovered from phage library selection on this NCI-60 cell line)” value is recorded as “CAIK-1 Renal”. In the case of NRAVLSA, the “Cell Line (NCI-60 cell line the peptide and its motif are associated with)” value is listed as “SK-OV-3-3 Ovarian”. Regarding FAGYGVL, the “Cell Line (NCI-60 cell line the peptide is associated with)” value is given as “SNB-19 CNS; also recorded: SF-539 CNS”. With GGMNGRL, the “Cell Line (NCI-60 cell line the peptide is associated with)” value is “HT-29 Colon”. On the same count and under the same terms, in the case of ADWGVLE it was “SNB-75 CNS”. With GGRSSHP, the “Cell Line with which the peptide” value is “Molt-4-Leukemia”. As for FAGRAPR, the “Cell Line the peptide is associated with (peptide recovered from phage library selection on this NCI-60 cell line)” value is given as “ACHN Renal”. In the case of VAGRLQM, the “Cell Line (NCI-60 cell line the peptide and its motif are associated with)” value is reported as “OVCAR-4 Ovarian”.

Take RSSIDVG: the “Cell Line the peptide is associated with (peptide recovered from phage library selection on this NCI-60 cell line)” value is reported as “NCI/ADR-RES Breast”.

Consider PPRAVTN, for which the “Cell Line (NCI-60 cell line the peptide and its motif are associated with)” value was “UACC62 Melanoma”. Regarding SSGGVLG, the “Cell Line with which the peptide” value is listed as “H460-Lung”. Take AVALGGS: the “Cell Line (NCI-60 cell line the peptide and its motif are associated with)” value is given as “UACC 257 Melanoma”. In the case of RRGSLMF, the “Cell Line (NCI-60 cell line the peptide is associated with)” value is given as “SW620-Colon”. Still for that read-out and setting: the entry for YSIMRVS is “SF-295 CNS”. Regarding HGGRARL, the “Cell Line (NCI-60 cell line the peptide is associated with)” value is “HT-29 Colon”. Consider GRVHLMP, for which the “Cell Line with which the peptide” value is recorded as “Hop-92-Lung”. GLLSLXL: the “Cell Line with which the peptide” value is “CCRF-CEM Leukemia”. Take PLQRGSG: the “Cell Line the peptide is associated with (peptide recovered from phage library selection on this NCI-60 cell line)” value is reported as “BT-549 Breast”.

Turning to LRSDPRS, the “Cell Line (NCI-60 cell line the peptide is associated with)” value is listed as “HT-29 Colon”. Regarding CHARGVT, the “Cell Line with which the peptide” value is “Molt-4-Leukemia”. On to PAILRVR, for which the “Cell Line the peptide is associated with (peptide recovered from phage library selection on this NCI-60 cell line)” value is “UO31 Renal”. The same measure, in the same setting: in the case of ARGNVRF it was “MDA-MB-231 Breast”.

Take PLRSVWS: the “Cell Line (NCI-60 cell line the peptide is associated with)” value is recorded as “SF-268 CNS”. On to TCGGRSY, for which the “Cell Line (NCI-60 cell line the peptide and its motif are associated with)” value is reported as “SK-MEL-2 Melanoma”. In the case of GVAIGRL, the “Cell Line the peptide is associated with (peptide recovered from phage library selection on this NCI-60 cell line)” value is listed as “CAIK-1 Renal”. On the same count and under the same terms, the entry for PIGGLFG is “ACHN Renal”. For the substance SLGGRTF, the “Cell Line (NCI-60 cell line the peptide is associated with)” value is “SNB-75 CNS”. For the substance THRNRSS, the “Cell Line with which the peptide” value is “SR Leukemia”. As to GRVVGEA, the “Cell Line with which the peptide” value was “H322-Lung”. GRGGSGY: the “Cell Line (NCI-60 cell line the peptide is associated with)” value is “HT-29 Colon”. For GGSSEFR, the “Cell Line with which the peptide” value is given as “Hop-92-Lung”. As for FSGDAVS, the “Cell Line (NCI-60 cell line the peptide is associated with)” value is listed as “HT-29 Colon”. As to VRVSGLT, the “Cell Line (NCI-60 cell line the peptide and its motif are associated with)” value was “SK-MEL-5 Melanoma”.
